Each structure is given as a SMILES string.

The test system of one test is Bmi-1 protein. In words: Sandwich ELISA Assay (Bmi-1 protein level in HT-1080 cells after compound treatment). The format is cell-based. Conditions: Table 1, Bmi-1 sandwich ELISA, read-out: ELISA EC50 value for Bmi-1 protein. Put shortly: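 Sandwich ELISA quantified Bmi-1 protein against recombinant standard (125–8000 pg/mL), with lysates captured overnight at 4 °C and signal by HRP/TMB at 450 nm (570 nm reference). Lysates came from HT-1080 cells incubated 40–48 h with test compounds in 0.5% DMSO.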
With `Cc1nc2cc(F)c(F)cc2n1-c1c[n+]([O-])cc(Nc2ccc(OC(F)F)cc2)n1` [compound 516, N-[4-(difluoromethoxy)phenyl]-6-(5,6-difluoro-2-methyl-1H-benzimidazol-1-yl)pyrazin-2-amine 4-oxide], the EC50 was in the range of 10 to 100 nM.
The same measure, in the same setting: as for `Cc1nc2ncccc2n1-c1cncc(NC2=CCC(F)(C(F)(F)F)C=C2)n1` (stereo not shown) [compound 360, N-[4-fluoro-4-(trifluoromethyl)phenyl]-6-(2-methyl-1H-imidazo[4,5-b]pyridin-1-yl)pyrazin-2-amine], the figure is 10 to 100 nM; as for `CCc1nn2ccccc2c1-c1cc(C#N)cc(Nc2ccc(C(F)(F)F)cc2)n1` [compound 526, 2-(2-ethylpyrazolo[1,5-a]pyridin-3-yl)-6-{[4-(trifluoromethyl)phenyl]amino}pyridine-4-carbonitrile], 10 to 100 nM; as for `Cc1nc2ccccc2n1-c1cncc(Nc2ccc(C(C)O)cc2)n1` (stereo not shown) [compound 155, 1-(4-{[6-(2-methyl-1H-benzimidazol-1-yl)pyrazin-2-yl]amino}phenyl)ethanol], 10 to 100 nM.
The same measure, in the same setting: as for `Cc1nc2c(n1-c1cncc(Nc3ccc(OC(F)F)cc3)n1)CCCC2` [compound 258, N-[4-(difluoromethoxy)phenyl]-6-(2-methyl-4,5,6,7-tetrahydro-1H-benzimidazol-1-yl)pyrazin-2-amine], the figure is 1 to 10 nM.
For `Cc1nc2ccccc2n1-c1cccc(Nc2ccc(OC(F)(F)F)cc2)n1` [Cpd 36, 6-(2-methyl-1H-benzimidazol-1-yl)-N-[4-(trifluoromethoxy)phenyl]pyridin-2-amine], the EC50 fell in the range of 100 to 3000 nM.
On the same count and under the same terms, as for `Cc1nc2ccccc2n1-c1cncc(Nc2nc3ccccc3s2)n1` [compound 420, N-[6-(2-methyl-1H-benzimidazol-1-yl)pyrazin-2-yl]-1,3-benzothiazol-2-amine], the figure is 1 to 10 nM; as for `COc1cc(Nc2ccc(C(F)(F)F)cc2)nc(-c2c(C(=O)O)nc3ccccn23)c1` [Cpd 124, 3-(4-methoxy-6-{[4-(trifluoromethyl)phenyl]amino}pyridin-2-yl)imidazo[1,2-a]pyridine-2-carboxylic acid], 10 to 100 nM.
As for `FC1(F)Oc2ccc(Nc3cncc(-c4c(C(F)(F)F)nn5ccccc45)n3)cc2O1` [compound 92, N-(2,2-difluoro-1,3-benzodioxol-5-yl)-6-[2-(trifluoromethyl)pyrazolo[1,5-a]pyridin-3-yl]pyrazin-2-amine], the EC50 is 100 to 3000 nM.
On the same count and under the same terms, as for `N#Cc1cc(Nc2ccc(C(F)(F)F)cc2)nc(-c2c(CO)nc3ccccn23)c1` [compound 288, 2-[2-(hydroxymethyl)imidazo[1,2-a]pyridin-3-yl]-6-{[4-(trifluoromethyl)phenyl]amino}pyridine-4-carbonitrile], the figure is 10 to 100 nM.
Same read-out and setting: for `Cc1nc2ccccc2n1-c1cncc(Nc2ccc(C(F)(F)F)c(Cl)c2)n1` [compound 390, N-[3-chloro-4-(trifluoromethyl)phenyl]-6-(2-methyl-1H-benzimidazol-1-yl)pyrazin-2-amine] the value was 10 to 100 nM; for `Cc1nc2ccccc2n1-c1cc(N)cc(Nc2ccc(Cl)cc2)n1` [compound 633, N^2-(4-chlorophenyl)-6-(2-methyl-1H-benzimidazol-1-yl)pyridine-2,4-diamine], 10 to 100 nM; for `Cc1ccc(Nc2cncc(-n3c(C)nc4cc(F)c(F)cc43)n2)cc1` [compound 574, 6-(5,6-difluoro-2-methyl-1H-benzimidazol-1-yl)-N-(4-methylphenyl)pyrazin-2-amine], 100 to 3000 nM.
With `COc1ccc2nc(C)c(-c3cncc(Nc4ccc(OC(F)(F)F)cc4)n3)n2c1` [compound 377, 6-(6-methoxy-2-methylimidazo[1,2-a]pyridin-3-yl)-N-[4-(trifluoromethoxy)phenyl]pyrazin-2-amine], the EC50 was in the range of 10 to 100 nM.
Still for that read-out and setting: as for `Cc1nc2ncccc2n1-c1cncc(Nc2ccc(OC(F)F)c(F)c2)n1` [compound 325], the figure is 10 to 100 nM; as for `Cc1nc2ncccc2n1-c1cncc(Nc2ccc(OC(F)F)cc2)n1` [compound 85, N-[4-(difluoromethoxy)phenyl]-6-(2-methyl-1H-imidazo[4,5-b]pyridin-1-yl)pyrazin-2-amine], 10 to 100 nM.
Same read-out and setting: for `Nc1cc(Nc2ccc(OC(F)F)cc2)nc(-c2c(C(F)(F)F)nc3ccccn23)c1` [compound 170, N^2-[4-(difluoromethoxy)phenyl]-6-[2-(trifluoromethyl)imidazo[1,2-a]pyridin-3-yl]pyridine-2,4-diamine] the value was 100 to 3000 nM.
As for `CCCCc1nc2ccccc2n1-c1cncc(Nc2ccc(C(F)(F)F)cc2)n1` [compound 80, 6-(2-butyl-1H-benzimidazol-1-yl)-N-[4-(trifluoromethyl)phenyl]pyrazin-2-amine], the EC50 lay in the range of 100 to 3000 nM.
The same measure, in the same setting: as for `Cc1cc(Nc2cncc(-n3c(C)nc4ccccc43)n2)ccc1C(F)(F)F` [compound 408, 6-(2-methyl-1H-benzimidazol-1-yl)-N-[3-methyl-4-(trifluoromethyl)phenyl]pyrazin-2-amine], the figure is 10 to 100 nM; as for `Cc1nc2ccccc2n1-c1cc(F)cc(Nc2ccc(C(F)(F)F)cc2)n1` [Cpd 494, 4-fluoro-6-(2-methyl-1H-benzimidazol-1-yl)-N-[4-(trifluoromethyl)phenyl]pyridin-2-amine], 10 to 100 nM.
For `Cc1nc2c(F)cccc2n1-c1cc(C#N)cc(Nc2ccc(C(F)(F)F)cc2)n1` [Cpd 435, 2-(4-fluoro-2-methyl-1H-benzimidazol-1-yl)-6-{[4-(trifluoromethyl)phenyl]amino}pyridine-4-carbonitrile], the EC50 fell in the range of 10 to 100 nM.
Same read-out and setting: for `COc1ccc2nc(C)c(-c3cc(C#N)cc(Nc4ccc(OC(F)(F)F)cc4)n3)n2c1` [compound 380, 2-(6-methoxy-2-methylimidazo[1,2-a]pyridin-3-yl)-6-{[4-(trifluoromethoxy)phenyl]amino}pyridine-4-carbonitrile] the value was 10 to 100 nM; for `CC(O)c1nc2ccccc2n1-c1cncc(Nc2ccc(C(F)(F)F)cc2)n1` (stereo not shown) [compound 150, 1-[1-(6-{[4-(trifluoromethyl)phenyl]amino}pyrazin-2-yl)-1H-benzimidazol-2-yl]ethanol], 10 to 100 nM.
On the same count and under the same terms, for `FC(F)(F)c1ccc(Nc2cncc(-n3c(Cl)nc4ccccc43)n2)cc1` [compound 134, 6-(2-chloro-1H-benzimidazol-1-yl)-N-[4-(trifluoromethyl)phenyl]pyrazin-2-amine] the value was 100 to 3000 nM; for `FC(F)(F)c1ccc(Nc2cncc(-c3ccnc4cc(Cl)ccc34)n2)cc1` [compound 385, 6-(7-chloroquinolin-4-yl)-N-[4-(trifluoromethyl)phenyl]pyrazin-2-amine], 100 to 3000 nM.
The same measure, in the same setting: for `Cc1nc2ccc(F)cc2n1-c1cccc(Nc2ccc(C#N)cc2)n1` [Cpd 609, 4-{[6-(6-fluoro-2-methyl-1H-benzimidazol-1-yl)pyridin-2-yl]amino}benzonitrile] the value was 100 to 3000 nM.
Regarding `COc1ncc(Nc2cncc(-c3c(C(F)(F)F)nc4ccccn34)n2)cn1` [Cpd 201, 2-methoxy-N-{6-[2-(trifluoromethyl)imidazo[1,2-a]pyridin-3-yl]pyrazin-2-yl}pyrimidin-5-amine], the half-maximal effective concentration (EC50) was 1 to 10 nM.
Same read-out and setting: as for `COc1ccc(Nc2cncc(-n3c(C)nc4ccccc43)n2)cc1Cl` [compound 28, N-(3-chloro-4-methoxyphenyl)-6-(2-methyl-1H-benzimidazol-1-yl)pyrazin-2-amine], the figure is 1 to 10 nM.
On the same count and under the same terms, as for `Cc1nc2cc(F)c(F)cc2n1-c1cccc(Nc2ccc(C(F)(F)F)cc2)n1` [compound 601, 6-(5,6-difluoro-2-methyl-1H-benzimidazol-1-yl)-N-[4-(trifluoromethyl)phenyl]pyridin-2-amine], the figure is 10 to 100 nM; as for `Cc1c(-c2cncc(Nc3ccc(C(F)(F)F)cc3)n2)c(C(F)(F)F)nn1C` [compound 276, 6-[1,5-dimethyl-3-(trifluoromethyl)-1H-pyrazol-4-yl]-N-[4-(trifluoromethyl)phenyl]pyrazin-2-amine], 10 to 100 nM; as for `Cc1nc2ccc(F)cn2c1-c1cc(C#N)cc(Nc2cccc(F)c2)n1` [compound 651, 2-(6-fluoro-2-methylimidazo[1,2-a]pyridin-3-yl)-6-[(3-fluorophenyl)amino}pyridine-4-carbonitrile], 100 to 3000 nM.
Same read-out and setting: as for `Cc1nc2cc(Cl)ccc2n1-c1cncc(Nc2ccc(C(F)(F)F)cc2)n1` [compound 239, 6-(5-chloro-2-methyl-1H-benzimidazol-1-yl)-N-[4-(trifluoromethyl)phenyl]pyrazin-2-amine], the figure is 10 to 100 nM; as for `COc1ccc2nc(C)c(-c3cncc(Nc4ccc(C(F)(F)F)cc4)n3)n2c1` [compound 376, 6-(6-methoxy-2-methylimidazo[1,2-a]pyridin-3-yl)-N-[4-(trifluoromethyl)phenyl]pyrazin-2-amine], 10 to 100 nM.

Still in this test, the particulars now being: read-out: ELISA EC50 value for Bmi-1 protein, Table 1, Bmi-1 sandwich ELISA.
With `Cc1nc2ccccc2n1-c1cc(C(N)=O)cc(Nc2ccc(C(F)(F)F)cc2)n1` [Cpd 203, 2-(2-methyl-1H-benzimidazol-1-yl)-6-{[4-(trifluoromethyl)phenyl]amino}pyridine-4-carboxamide], the EC50 fell in the range of 100 to 3000 nM.
Same read-out and setting: as for `FC(F)(F)c1ccc(Nc2cncc(-c3c(C(F)(F)F)nc4ncccn34)n2)cc1` [Cpd 67, 6-[2-(trifluoromethyl)imidazo[1,2-a]pyrimidin-3-yl]-N-[4-(trifluoromethyl)phenyl]pyrazin-2-amine], the figure is 10 to 100 nM; as for `FC(F)(F)c1ccc(Nc2cccc(-c3c(C(F)(F)F)nc4ncccn34)n2)cc1` [Cpd 64, 6-[2-(trifluoromethyl)imidazo[1,2-a]pyrimidin-3-yl]-N-[4-(trifluoromethyl)phenyl]pyridin-2-amine], 10 to 100 nM; as for `Cc1ccc(-c2c(C(F)(F)F)nc3ccccn23)nc1Nc1ccc(C(F)(F)F)cc1` [compound 269, 3-methyl-6-[2-(trifluoromethyl)imidazo[1,2-a]pyridin-3-yl]-N-[4-(trifluoromethyl)phenyl]pyridin-2-amine], 100 to 3000 nM.

The values are drawn from US10584115B2, “Substituted pyridine and pyrazine BMI-1 inhibitors” (PTC Therapeutics, Inc., priority 2013, dated 2020).
